Data set [1] deals with RAW264.7. Description: Antiinflammatory activity against mouse RAW264.7 cells assessed as inhibition of LPS-induced IL-6 production at 10 uM pretreated with compound for 0.5 hrs followed by incubation with LPS for 24 hrs by ELISA. The conditions noted are these: time 24.5 hrs. It is filed as functional.
A short description of data set [2]: Cytotoxicity against mouse RAW264.7 cells assessed as cell viability at 10 uM incubated for 24 hrs by MTT assay relative to control. It is filed as toxicity, cell-based. The conditions noted are these: read-out: Activity. (Tetrazolium dyes change colour on reduction, which living cells bring about.)
Data set [3] has as its system Mus musculus. Put plainly: Antiinflammatory activity against LPS-induced acute lung injury C57BL/6J mouse model assessed as decrease in LPS-induced F4/80 expression in lungs at 20 mg/kg, ig administered every 12 hrs for 3 times and 30 mins later injected with LPS and measured after 5 hrs by immunohistochemical staining based analysis. It is filed as functional, organism-based. The conditions noted are these: time 41.5 hrs.

For data set [4], the system named is Mus musculus. Put plainly: Antiinflammatory activity against LPS-induced acute lung injury C57BL/6J mouse model assessed as decrease in disruption of lung tissue structure and alveolar wall thickening at 20 mg/kg, ig administered every 12 hrs for 3 times and 30 mins later injected with LPS and measured after 5 hrs. It is filed as functional, organism-based. The conditions noted are these: time 41.5 hrs.

Data set [5] relates to Mus musculus. Put plainly: Antiinflammatory activity against LPS-induced acute lung injury C57BL/6J mouse model assessed as decrease in ratio of lung wet to dry weight at 20 mg/kg, ig administered every 12 hrs for 3 times and 30 mins later injected with LPS and measured after 5 hrs. It is filed as functional, organism-based. The conditions noted are these: time 41.5 hrs.
Data set [6] relates to Mus musculus. Put plainly: Antiinflammatory activity against LPS-induced acute lung injury C57BL/6J mouse model assessed as decrease in LPS-induced TNF-alpha production in serum at 20 mg/kg, ig administered every 12 hrs for 3 times and 30 mins later injected with LPS and measured after 5 hrs by ELISA. The conditions noted are these: time 41.5 hrs. It is filed as functional, organism-based.

Data set [7] relates to Mus musculus. Put plainly: Antiinflammatory activity against LPS-induced acute lung injury C57BL/6J mouse model assessed as decrease in neutrophil number in BALF at 20 mg/kg, ig administered every 12 hrs for 3 times and 30 mins later injected with LPS and measured after 5 hrs by Wrigth-Giemsa staining. It is filed as functional, organism-based. The conditions noted are these: time 41.5 hrs.

Data set [8] has as its system Mus musculus. Put plainly: Antiinflammatory activity against LPS-induced hyperemia C57BL/6J mouse model assessed as decrease in LPS-induced weight loss at 20 mg/kg, po administered 1 hr prior to LPS stimulation and measured for 1 week. It is filed as functional, organism-based. The conditions noted are these: time 1.0 weeks.
The test system of data set [9] is RAW264.7. Description: Antiinflammatory activity against mouse RAW264.7 cells assessed as inhibition of LPS-induced TNF-alpha production pretreated with compound for 0.5 hrs followed by incubation with LPS for 24 hrs by ELISA. It is filed as functional, cell-based. In general terms: ELISA stands for enzyme-linked immunosorbent assay.
In data set [10] the test system is Mus musculus. Description: Antiinflammatory activity against LPS-induced acute lung injury C57BL/6J mouse model assessed as decrease in LPS-induced TNF-alpha production in BALF at 20 mg/kg, ig administered every 12 hrs for 3 times and 30 mins later injected with LPS and measured after 5 hrs by ELISA. It is filed as functional, organism-based. The conditions noted are these: time 41.5 hrs.

Data set [11] deals with Mus musculus. Description: Antiinflammatory activity against LPS-induced acute lung injury C57BL/6J mouse model assessed as decrease in LPS-induced IL-6 production in BALF at 20 mg/kg, ig administered every 12 hrs for 3 times and 30 mins later injected with LPS and measured after 5 hrs by ELISA. The conditions noted are these: time 41.5 hrs. It is filed as functional, organism-based.

Data set [12] relates to Mus musculus. Description: Antiinflammatory activity against LPS-induced hyperemia C57BL/6J mouse model assessed as decrease in LPS-induced morphological changes in spleen at 20 mg/kg, po administered 1 hr prior to LPS stimulation by Hematoxylin-Eosin staining based analysis. It is filed as functional, organism-based.
The test system of data set [13] is Mus musculus. Put plainly: Antiinflammatory activity against LPS-induced hyperemia C57BL/6J mouse model assessed as decrease in LPS-induced death rate at 20 mg/kg, po administered 1 hr prior to LPS stimulation and measured for 1 week. It is filed as functional, organism-based. The conditions noted are these: time 1.0 weeks.
In data set [14] the test system is RAW264.7. Put plainly: Antiinflammatory activity against mouse RAW264.7 cells assessed as inhibition of LPS-induced IL-6 production pretreated with compound for 0.5 hrs followed by incubation with LPS for 24 hrs by ELISA. It is filed as functional, cell-based.
Data set [15] concerns Mus musculus. Put plainly: Antiinflammatory activity against LPS-induced acute lung injury C57BL/6J mouse model assessed as decrease in LPS-induced IL-6 production in serum at 20 mg/kg, ig administered every 12 hrs for 3 times and 30 mins later injected with LPS and measured after 5 hrs by ELISA. It is filed as functional, organism-based. The conditions noted are these: time 41.5 hrs.

The subject of data set [16] is Mus musculus. Put plainly: Antiinflammatory activity against LPS-induced acute lung injury C57BL/6J mouse model assessed as decrease in total protein concentration in BALF at 20 mg/kg, ig administered every 12 hrs for 3 times and 30 mins later injected with LPS and measured after 5 hrs. It is filed as functional, organism-based. The conditions noted are these: time 41.5 hrs.

Calls of active or inactive are those of the source. The rule behind the calls is not given here.

What is called inhibition is how much of the control response was suppressed. In the case of `O=C(CCc1ccccc1)NC(=O)c1cccs1`, in [1], the inhibition result is “Active”.
Still for that read-out and setting: then `O=C(NCCCc1ccccc1)c1cccs1`, with “Active”.
Turning to `COc1ccc2cc(C(C)C(=O)NC(=O)/C=C/c3ccccc3)ccc2c1` (configuration not stated), in data set [1], the inhibition at 10 µM was 79.1%. In addition, the viability at 24 h, 10 µM in [2] is 78.5%.
Consider `C[C@@H]1C[C@H]2[C@@H]3CCC4=CC(=O)C=C[C@]4(C)[C@@]3(F)[C@@H](O)C[C@]2(C)[C@@]1(O)C(=O)CO`, for which the result in [3], in data set [4] and in data set [5] was Active.
With `O=C(/C=C/c1ccccc1)NC(=O)c1ccco1`, the inhibition at 10 µM in [1] came out at 88.6%. The viability at 24 h, 10 µM in data set [2] came out at 97.3%.
For `O=C(/C=C/c1ccccc1)NC(=O)c1ccccc1`, in that order: 90.7% and 72.8%.
In the case of `COc1ccc2cc(C(C)C(=O)NC(=O)C(C)c3ccc(CC(C)C)cc3)ccc2c1` (configuration not stated), in [1], the inhibition at 10 µM was found to be 55.7%. The viability at 24 h, 10 µM in data set [2] came out at 117%.
Turning to `O=C(/C=C/c1ccccc1)NCc1cccs1`, the inhibition entry in data set [1] was “Active”.
With `COc1cc(/C=C/C(=O)CC(=O)/C=C/c2ccc(O)c(OC)c2)ccc1O` [CURCUMIN], in [1], the inhibition at 10 µM was determined as 87%. For the same compound, in data set [2], the viability at 24 h, 10 µM stood at 120%.
On to `O=C(/C=C/c1ccccc1)NC(=O)C1CCNC1` (configuration not stated), for which the inhibition at 10 µM in [1] was determined as 74%. Also, the viability at 24 h, 10 µM in [2] stood at 130%.
For `O=C(/C=C/c1ccccc1)NC(=O)c1ccc2ccccc2n1`, in that order: 83.3% and 93.2%.
For `CC(C)Cc1ccc(C(C)C(=O)NC(=O)/C=C/c2ccccc2)cc1` (configuration not stated), in that order: 90.1% and 94.4%.
For `O=C(NC(=O)c1ccccc1)c1ccccc1`, in that order: 66.7% and 109%.
In the case of `CC(C)Cc1ccc(C(C)C(=O)O)cc1` (configuration not stated) [IBUPROFEN], the inhibition at 10 µM in data set [1] is 61%. Moreover, the viability at 24 h, 10 µM in data set [2] is 132%.
For `O=C(/C=C/c1ccccc1)NC(=O)/C=C/c1ccccc1`, in that order: 82.5% and 20.2%.
For `O=C(NC(=O)c1ccc2ccccc2n1)c1ccccc1`, in that order: 74% and 88.2%.
For `O=C(NC(=O)c1cccs1)c1ccccc1`, in that order: 62.3% and 99.3%.
`O=C(/C=C/c1ccccc1)NC(=O)c1cc2ccccc2[nH]1`: the inhibition at 10 µM in data set [1] was determined as 32%. Moreover, the viability at 24 h, 10 µM in [2] came to 32.4%.
As to `O=C(NC(=O)c1ccco1)c1ccccc1`, the inhibition at 10 µM in [1] is 70.2%. Further, the viability at 24 h, 10 µM in [2] came out at 106%.
Regarding `COc1ccc2cc([C@H](C)C(=O)O)ccc2c1` [NAPROXEN], the inhibition at 10 µM in data set [1] was 52.2%. Further, in data set [2], the viability at 24 h, 10 µM came to 112%.
With `c1ccc(CCCNCc2cccs2)cc1`, the inhibition result in [1] is “Active”.
With `COc1ccc2cc(C(C)C(=O)NC(=O)c3ccccc3)ccc2c1` (configuration not stated), the inhibition at 10 µM in data set [1] is 71.2%. The viability at 24 h, 10 µM in data set [2] amounted to 89.7%.
For `CC(C)Cc1ccc(C(C)C(=O)NC(=O)c2ccccc2)cc1` (configuration not stated), in that order: 71.1% and 91%.
For `O=C(NC(=O)c1cc2ccccc2[nH]1)c1ccccc1`, in data set [1], the inhibition at 10 µM turned out to be 77.2%. Besides, the viability at 24 h, 10 µM in data set [2] came out at 90.5%.
In the case of `O=C(CCc1ccccc1)NCc1cccs1`, in [1], the inhibition result is “Active”.
`O=C(NC(=O)C1CCNC1)c1ccccc1` (configuration not stated): the inhibition at 10 µM in data set [1] was determined as 74%. The viability at 24 h, 10 µM in [2] came to 115%.
For `O=C(NC(=O)c1cccnc1)c1ccccc1`, in that order: 62% and 103%.
For `CC(C)(C)OC(=O)N1CCC(C(=O)NC(=O)/C=C/c2ccccc2)C1` (configuration not stated), in that order: 77.5% and 135%.
The IC50 is the concentration that inhibits the measured activity by half. Turning to `O=C(/C=C/c1ccccc1)NC(=O)c1cccs1`, the result in data set [3], in data set [6], in [4], in data set [7], in data set [8] and in [10] was Active. For the same compound, the outcome in data set [11], in data set [5], in data set [12], in data set [13], in [15] and in data set [16] was Active. Moreover, the concentration for half-maximal inhibition (IC50) turned out to be 15.3 µM in data set [9] and 1.59 µM in data set [14]. Also, the inhibition entry in data set [9] (time 24.5 hrs) and in data set [14] (time 24.5 hrs) was “Dose-Dependent Effect” each time. In data set [1], the inhibition at 10 µM came to 94.8%. In addition, the viability at 24 h, 10 µM in data set [2] worked out at 110%.
As for `CC(C)(C)OC(=O)N1CCC(C(=O)NC(=O)c2ccccc2)C1` (configuration not stated), the inhibition at 10 µM in data set [1] was found to be 60.6%. Further, the viability at 24 h, 10 µM in [2] is 143%.
